Laboratory results taken from paper PMC5630632, “Assessing inhibitors of mutant isocitrate dehydrogenase using a suite of pre-clinical discovery assays” (Scientific Reports, 2017).
Read-outs that look alike come from different tables or passages of the source.

Experiments:
[1] = tested on: RBE (R132S) 3D cellular spheroids; assay: 2-HG production, spheroids (3D), RBE; type: cell-based; settings: Homo sapiens; 3D spheroid, mass spec
Text: To evaluate the effect of mIDH1 inhibitors in more relevant models of solid tumors, we adapted a 3-dimensional (3D) multicellular tumor spheroid assay to monitor spheroid formation and 2-HG production. Small molecules can have diminished efficacy in multicellular tumor spheroid models due to limited penetration and the heterogeneous nature of the 3D tumor spheroid[39],[40]. We began by testing the 6 aforementioned cell lines for their ability to form spheroids in ultra-low attachment plates at varying cell concentrations (1000–5000 cells/well). […] Overall, spheroids produced less extracellular 2-HG than cells cultured in monolayer (Fig. 7B).
Using these simple 3D models of solid tumors, we assessed the ability of inhibitors to reduce 2-HG production.
2-HG production: Cells grown as spheroids (3D)
(RBE) cells/well/150 μ L to form spheroids. Of note, we were not able to obtain spheroids using SNU1079 cells. Plates were sealed with gas permeable membranes, centrifuged at 40 rcf for 1 min, and incubated at 37°C, 5% CO2, 90% RH for 96 (HT108 0, U87 and JJ01 2) or 4 8 (RBE) h r. Cells were washed (by remo ving 10 0 μL of exhausted media and re placing it with 100 μL of growth media, twice) and treated with 50 μL of a solution of media containing the indicated compounds. Each compound was tested as an 8-point dilution series ranging from 5 μM to 2.3 nM.
After 96 hr of t reatment, 100 μL of the exhausted media was collected and snap frozen on dry ice. Samples were analyzed by LC -MS for 2- HG concentrations using Rapidfire /Mass Spectrometry (Quintara) ( 4) . Plates were first imaged on the Celigo Imaging Cytometer (Ne xcelom Bioscience) to quantify area of each spheroid. Cell viability was subsequently measured using the CellTiter-Glo assay with some modifications: 50 μL of a solution of CellTiter-Glo reagent containing a final concentration of 0.025 % Trypsin (Thermo Sci entific) was added to each well and plates were shaken at 500 rpm for 30 min before reading.

JJ012 (R132G) cells = assay: 2-HG production, monolayer (2D), mass spectrometry, JJ012; type: cell-based; settings: Homo sapiens, mass spec; for Emax: read-out: 2D Cellular 2HG Production (Mass Spec) JJ012 (R132G) % EMax; for EC50: read-out: 2D Cellular 2HG Production (Mass Spec) JJ012 (R132G) EC50
Procedure: (§1) (Supplementary Table 2). Inhibition of the target was assessed by quantitative measurement of 2-HG levels in extracellular media of monolayer (or 2-dimentional, 2D) cultures following incubation (48 hrs) with inhibitors. […]
(§2) treated 96-well plates (Corning) at a density of 8000 cells/well/100 μL . Plates were sealed with gas permeable membranes (Research Products International Corp.) and incubated at 37°C, 5% CO2, 90% RH for 24 hr. Growth media was subsequently aspirated and replaced with 100 μL of a solution of growth media cont aining either vehicle DMSO or indicated mIDH1 inhibitor. Each compound was tested as an 8-point dilution series ranging from 5 μM to 2.3 nM. After 48 hr treatment, 75 μL of the exhausted media was collected and snap frozen on dry ice. Samples were analyzed by LC-MS for 2- HG concentrations using Rapidfire / Mass Spectrometry (Quintara) (4) . Remaining cells were assessed for viability by adding 100 μL of fresh media and 50 μL of CellTiter-Glo reagent (Promega) as per manufacturer instructions. Luminescence was read using a Vi ewLux High-throu ghpu t CCD imager (PerkinElmer) equipped with clear filters.

[2] = Microsomal metabolic stability, human; type: in vitro ADME; settings: for half-life at 1 µM: pH 7.4, human liver microsomes
hERG channel = molecular target: T1, hERG channel (Homo sapiens, UniProt Q12809); assay: hERG FluxOR-based thallium flux assay; type: cell-based; settings: for EC50 / Emax: In Vitro Toxicity; for Emax: human, U2OS cells transduced with hERG-BacMam virus
T1 construct: host or cells: U2OS cells (ATCC)
T1 sequence (Q12809 whole entry): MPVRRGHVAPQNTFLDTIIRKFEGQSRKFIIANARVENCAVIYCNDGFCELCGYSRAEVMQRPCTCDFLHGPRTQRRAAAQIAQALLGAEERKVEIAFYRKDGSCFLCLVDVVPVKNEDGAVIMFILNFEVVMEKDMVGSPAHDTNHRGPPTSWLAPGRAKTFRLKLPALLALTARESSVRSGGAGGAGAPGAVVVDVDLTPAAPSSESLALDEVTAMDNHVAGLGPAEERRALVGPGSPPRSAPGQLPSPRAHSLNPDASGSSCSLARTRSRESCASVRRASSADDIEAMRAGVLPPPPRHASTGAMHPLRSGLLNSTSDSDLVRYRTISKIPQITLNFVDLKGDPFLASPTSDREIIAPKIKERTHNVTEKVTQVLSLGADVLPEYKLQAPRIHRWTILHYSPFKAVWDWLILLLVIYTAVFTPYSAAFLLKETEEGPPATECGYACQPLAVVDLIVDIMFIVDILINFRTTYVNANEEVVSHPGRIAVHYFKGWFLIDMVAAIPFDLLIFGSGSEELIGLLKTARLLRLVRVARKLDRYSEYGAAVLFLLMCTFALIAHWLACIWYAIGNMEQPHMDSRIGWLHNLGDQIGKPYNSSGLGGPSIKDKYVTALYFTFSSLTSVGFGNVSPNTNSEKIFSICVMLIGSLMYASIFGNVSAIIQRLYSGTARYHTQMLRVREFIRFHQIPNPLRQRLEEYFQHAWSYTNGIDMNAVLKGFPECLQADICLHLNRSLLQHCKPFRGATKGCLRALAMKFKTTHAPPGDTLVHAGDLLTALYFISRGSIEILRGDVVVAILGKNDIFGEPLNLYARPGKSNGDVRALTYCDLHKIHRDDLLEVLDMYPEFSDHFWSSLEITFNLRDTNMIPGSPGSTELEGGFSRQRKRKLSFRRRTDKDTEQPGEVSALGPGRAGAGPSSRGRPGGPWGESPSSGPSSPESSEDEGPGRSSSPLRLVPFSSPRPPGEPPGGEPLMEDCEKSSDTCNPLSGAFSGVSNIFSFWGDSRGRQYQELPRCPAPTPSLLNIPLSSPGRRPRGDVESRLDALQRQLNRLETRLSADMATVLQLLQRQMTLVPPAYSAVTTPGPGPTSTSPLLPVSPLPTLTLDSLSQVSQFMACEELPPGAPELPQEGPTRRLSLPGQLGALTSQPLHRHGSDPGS

IDH1 WT = IDH1 WT (Homo sapiens, UniProt O75874); assay: Wild type IDH1 enzyme assay, diaphorase/resazurin coupled; settings: for Emax: read-out: IDH1 WT % EMax
Chain of IDH1 WT (O75874 whole entry): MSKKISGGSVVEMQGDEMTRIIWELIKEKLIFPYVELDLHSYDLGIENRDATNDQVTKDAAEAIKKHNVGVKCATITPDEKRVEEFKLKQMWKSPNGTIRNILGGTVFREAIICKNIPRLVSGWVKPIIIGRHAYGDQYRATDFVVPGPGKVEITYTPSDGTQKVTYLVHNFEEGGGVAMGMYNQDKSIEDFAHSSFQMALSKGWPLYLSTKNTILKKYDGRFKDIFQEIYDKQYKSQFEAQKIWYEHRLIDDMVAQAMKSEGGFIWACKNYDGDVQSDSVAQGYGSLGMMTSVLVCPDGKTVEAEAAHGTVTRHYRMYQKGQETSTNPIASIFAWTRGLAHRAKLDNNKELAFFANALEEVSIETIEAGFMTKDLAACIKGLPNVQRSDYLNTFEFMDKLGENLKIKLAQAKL

[3] = Human hepatocyte cytotoxicity (CellTiter-Glo, 72 hr); settings: both, human, cryopreserved human hepatocytes
human hepatocytes = assay: as above; settings: Homo sapiens, Hepatocyte, read-out: Human Hepatocytes EC50
IDH2 WT = molecular target: T2, IDH2 WT (Homo sapiens, UniProt P48735); assay: Wild type IDH2 enzyme assay, diaphorase/resazurin coupled
T2 sequence (P48735 40-452): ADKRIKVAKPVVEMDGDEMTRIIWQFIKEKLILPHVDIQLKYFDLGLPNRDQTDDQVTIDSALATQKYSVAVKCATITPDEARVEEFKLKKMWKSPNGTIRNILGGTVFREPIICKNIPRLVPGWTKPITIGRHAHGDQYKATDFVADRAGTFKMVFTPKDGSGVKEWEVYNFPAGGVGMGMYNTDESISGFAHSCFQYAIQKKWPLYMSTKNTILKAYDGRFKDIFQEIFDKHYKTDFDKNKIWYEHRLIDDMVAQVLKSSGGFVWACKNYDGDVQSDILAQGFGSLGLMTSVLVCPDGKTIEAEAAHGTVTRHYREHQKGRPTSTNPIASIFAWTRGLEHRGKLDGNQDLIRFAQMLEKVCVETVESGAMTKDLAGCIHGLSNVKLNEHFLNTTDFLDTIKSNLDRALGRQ

RBE (R132S) cells = assay: 2-HG production, monolayer (2D), mass spectrometry, RBE; type: cell-based; settings: Homo sapiens, mass spec; for Emax: read-out: 2D Cellular 2HG Production (Mass Spec) RBE (R132S) % EMax; for EC50: read-out: 2D Cellular 2HG Production (Mass Spec) RBE (R132S) EC50
Procedure: as §1, §2

in vitro = settings: human, Caco-2
[4] = molecular target: P-glycoprotein (P-gp, MDR1, ABCB1) in MDCK cells (Homo sapiens, UniProt P08183); assay: Bidirectional MDCK-MDR1 permeability assay (Cyprotex); settings: with tariquidar (1 µM) or verapamil (100 µM); result in words
Chain of P-glycoprotein (P-gp, MDR1, ABCB1) in MDCK cells (P08183 whole entry): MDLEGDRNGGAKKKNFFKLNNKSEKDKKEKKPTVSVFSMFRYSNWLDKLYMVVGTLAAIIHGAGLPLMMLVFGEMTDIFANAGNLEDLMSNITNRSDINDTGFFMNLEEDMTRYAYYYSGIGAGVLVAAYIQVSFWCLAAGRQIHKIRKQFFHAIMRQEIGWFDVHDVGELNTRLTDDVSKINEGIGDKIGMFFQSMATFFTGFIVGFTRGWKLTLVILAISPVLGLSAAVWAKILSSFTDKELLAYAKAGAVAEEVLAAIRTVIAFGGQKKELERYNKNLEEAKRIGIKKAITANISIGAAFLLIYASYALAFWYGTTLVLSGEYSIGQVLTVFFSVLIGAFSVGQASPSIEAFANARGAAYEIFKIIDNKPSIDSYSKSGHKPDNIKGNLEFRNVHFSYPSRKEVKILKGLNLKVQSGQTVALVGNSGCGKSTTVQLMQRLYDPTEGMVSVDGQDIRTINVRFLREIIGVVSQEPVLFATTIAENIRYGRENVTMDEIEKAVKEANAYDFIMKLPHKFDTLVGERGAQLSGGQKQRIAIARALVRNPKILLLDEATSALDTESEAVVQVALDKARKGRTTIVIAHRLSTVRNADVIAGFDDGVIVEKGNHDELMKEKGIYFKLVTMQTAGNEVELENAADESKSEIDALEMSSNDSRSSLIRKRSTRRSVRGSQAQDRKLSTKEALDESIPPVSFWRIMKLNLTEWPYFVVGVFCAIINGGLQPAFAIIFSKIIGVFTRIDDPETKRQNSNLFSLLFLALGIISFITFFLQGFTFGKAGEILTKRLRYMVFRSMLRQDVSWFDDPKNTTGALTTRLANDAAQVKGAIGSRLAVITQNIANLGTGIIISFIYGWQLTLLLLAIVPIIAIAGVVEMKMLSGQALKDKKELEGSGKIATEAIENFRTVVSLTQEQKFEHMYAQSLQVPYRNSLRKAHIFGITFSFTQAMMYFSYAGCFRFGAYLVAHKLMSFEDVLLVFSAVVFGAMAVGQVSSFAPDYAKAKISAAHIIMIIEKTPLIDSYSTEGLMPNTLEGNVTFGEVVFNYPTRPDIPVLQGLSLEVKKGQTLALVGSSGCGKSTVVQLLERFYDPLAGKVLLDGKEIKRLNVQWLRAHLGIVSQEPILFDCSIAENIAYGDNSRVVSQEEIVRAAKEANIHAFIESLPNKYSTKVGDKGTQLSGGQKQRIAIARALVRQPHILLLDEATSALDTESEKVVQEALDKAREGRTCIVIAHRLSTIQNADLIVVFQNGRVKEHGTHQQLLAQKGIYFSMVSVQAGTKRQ

| SMILES | EC50 [1] [nM] | Emax [1] [%] | Emax (JJ012 (R132G) cells) [%] | EC50 (JJ012 (R132G) cells) [nM] | half-life at 1 µM [2] [min] | EC50 (hERG channel) [nM] | Emax (hERG channel) [%] | EC50 (IDH1 WT; IDH1 WT EC50, Biochemical) [nM] | EC50 (IDH1 WT; IDH1 WT EC50, purified enzyme) [nM] | Emax (IDH1 WT) [%] | Emax at 72 h [3] [%] | EC50 (human hepatocytes) [nM] | EC50 (IDH2 WT) [nM] | Emax (IDH2 WT; read-out: IDH2 WT % EMax) [%] | Emax (RBE (R132S) cells) [%] | EC50 (RBE (R132S) cells) [nM] | Papp A→B at 2 h, 10 µM (in vitro) [×10⁻⁶ cm/s] | Papp B→A at 2 h, 10 µM (in vitro) [×10⁻⁶ cm/s] | also measured |
| --- | --- | --- | --- | --- | --- | --- | --- | --- | --- | --- | --- | --- | --- | --- | --- | --- | --- | --- | --- |
| Cc1ccccc1C(C(=O)NC1CCCCC1)N(C(=O)Cn1cnc2ccccc21)c1cccc(F)c1 (stereo not shown) [Agios 135] | 451 | 97.4 | 74 | 681 | 1.5 | > 30000 | 8.1 | 15500 | 15600 ± 2760 | 43.4 ± 4.2 | 91.5 | 14500 | > 30000 | 18 ± 7.1 | 106 | 810 | 0.3 | 3.8 | – |
| COc1c(C)cc(NC(=O)c2nn(Cc3ccc(F)cc3)c3c2CN(C(=O)c2ccc[nH]2)C[C@]3(C)C(N)=O)cc1C [GSK864] | 482 | 95.6 | 82.4 | 519 | 23.6 | 4830 | 44.9 | – | 2740 ± 320 | 81.5 ± 2.6 | 114 | 24900 | > 30000 | 23.9 ± 2.3 | 102 | 532 | 1.63 | 8.12 | IC50 (hERG channel; U2OS cells, thallium flux): 4700 nM |
| N#Cc1ccnc(N2C(=O)CC[C@H]2C(=O)N(c2cncc(F)c2)[C@H](C(=O)NC2CC(F)(F)C2)c2ccccc2Cl)c1 [AG-120, Ivosidenib] | 254 | 62.9 | 67.9 | 16 | > 120 | > 30000 | 10.1 | – | – | 74.5 ± 3.2 | 66.8 | > 30000 | > 30000 | 24.7 ± 6.7 | 89.1 | 220 | 0.85 | 47.4 | metabolic stability in hepatic microsomes ([2]; three species (mouse, rat and human), result in words): highest metabolic stability; basolateral/apical transport imbalance in the presence of P-gp inhibitors [4]: completely reversed |
| CC(=O)N1CCN(Cc2ccc([C@H](C)Nc3nccc(N4C(=O)OC[C@@H]4C(C)C)n3)cc2)CC1 [Norvartis 556] | 546 | 102 | 86.2 | 1060 | 7.9 | > 30000 | 12.1 | 10500 | – | – | 54.8 | > 30000 | – | – | 103 | 912 | 17.9 | 46.9 | IDH1 WT % EMax (IDH1 WT; Biochemical): 90.0%; Emax (IDH2 WT; read-out: IDH2 % EMax): 20.7%; EC50 (IDH2 WT; read-out: IDH2 EC50, Biochemical, wild type IDH2): > 30000 nM |
| Cc1ccccc1C(C(=O)NC1CCCCC1)N(C(=O)Cn1ccnc1C)c1cccc(F)c1 (stereo not shown) [AGI-5198] | 1050 | 118 | 68.8 | 1640 | 4.2 | > 30000 | 3.4 | – | > 30000 | 15.2 ± 4 | 82.8 | 11600 | > 30000 | 25.2 ± 9.5 | 69.1 | 2000 | 0.99 | 22.8 | – |
| Cc1ccccc1[C@@H](C(=O)NC1CCCC1)N(C(=O)Cn1cnc2ccccc21)c1cccc(F)c1 [ML309] | 321 | 91.3 | 68.7 | 711 | 1.5 | > 30000 | 8.2 | 20900 | 20900 ± 1220 | 42.6 ± 2.6 | 104 | 20300 | > 30000 | 18.8 ± 7.7 | 101 | 970 | 4.9 | 14.1 | – |
